Results from ChEMBL document CHEMBL4680197, “Further exploration of DVD-445 as a lead thioredoxin reductase (TrxR) inhibitor for cancer therapy: Optimization of potency and evaluation of anticancer potential” (Eur J Med Chem, 2020).
pIC50: −log10 of the molar value. Active and inactive are the calls of the source. The calls are words filed in the database; no cut-off is given here.

What was measured:
[1] = Cytotoxicity against human U87-TxR cells assessed as reduction in cell viability incubated for 72 hrs by MTT assay; type: functional, cell-based
[2] = Selectivity index, ratio of IC50 for human MRC5 cells to IC50 for human U87-TxR cells; type: toxicity; details: MRC5 cells versus U87-TxR cells, read-out: Ratio IC50
[3] = biological target: T1, Thioredoxin reductase 1, cytoplasmic (Homo sapiens) (UniProt Q16881); test: Inhibition of TrxR1 in human U87-TxR cells assessed as increase in RONS level at 10 uM measured after 24 hrs by dihydrorhodamine 123 dye based flow cytometry; type: cell-based
T1 sequence (whole entry): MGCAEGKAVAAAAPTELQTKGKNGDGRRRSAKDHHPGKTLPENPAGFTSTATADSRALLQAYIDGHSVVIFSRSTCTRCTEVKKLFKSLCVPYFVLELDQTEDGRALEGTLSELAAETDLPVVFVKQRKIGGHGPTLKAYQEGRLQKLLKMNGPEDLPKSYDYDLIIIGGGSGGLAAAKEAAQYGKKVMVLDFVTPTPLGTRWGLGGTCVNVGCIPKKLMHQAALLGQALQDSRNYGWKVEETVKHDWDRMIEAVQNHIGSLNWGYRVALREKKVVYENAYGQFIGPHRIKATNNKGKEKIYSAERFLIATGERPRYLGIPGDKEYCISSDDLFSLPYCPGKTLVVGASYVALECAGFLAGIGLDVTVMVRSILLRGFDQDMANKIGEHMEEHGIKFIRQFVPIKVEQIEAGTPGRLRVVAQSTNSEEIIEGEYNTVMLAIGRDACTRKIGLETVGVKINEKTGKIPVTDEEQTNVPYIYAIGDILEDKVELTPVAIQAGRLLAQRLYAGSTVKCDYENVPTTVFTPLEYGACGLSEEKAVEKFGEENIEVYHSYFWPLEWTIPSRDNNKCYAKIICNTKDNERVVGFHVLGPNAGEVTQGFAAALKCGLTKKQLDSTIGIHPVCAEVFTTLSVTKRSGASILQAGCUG

[4] = biological target: T2, ATP-dependent translocase ABCB1 (Homo sapiens, UniProt P08183); test: Inhibition of P-gp in human U87-TxR cells assessed as increase in Rho123 accumulation measured after 30 mins by flow cytometry; type: cell-based; details: 0.5 h
[5] = Selectivity index, ratio of IC50 for human MRC5 cells to IC50 for human U87 cells; type: toxicity; details: MRC5 cells versus U87 cells, read-out: Ratio IC50
U-87 MG = test: Cytotoxicity against human U87 cells assessed as reduction in cell viability incubated for 72 hrs by MTT assay; type: functional, cell-based, U-87MG ATCC
MRC5 = test: Cytotoxicity against human MRC5 cells assessed as reduction in cell viability incubated for 72 hrs by MTT assay; type: cell-based; details: MRC5, 72 h
SH-SY5Y = test: Inhibition of TrxR in human SH-SY5Y cell lysates at 5 uM using DTNB as substrate preincubated for 15 mins followed by substrate addition and measured for 20 mins by colorimetry relative to control; type: subcellular; details: time 35.0 min
[6] = biological target: T1, Thioredoxin reductase 1, cytoplasmic (Homo sapiens); test: Inhibition of TrxR1 in human U87 cells assessed as increase in RONS level at 10 uM measured after 24 hrs by dihydrorhodamine 123 dye based flow cytometry; type: cell-based
[7] = biological target: T3, Thioredoxin reductase 1, cytoplasmic (Rattus norvegicus, UniProt O89049); test: Inhibition of recombinant rat TrxR1 using DTNB as substrate preincubated for 15 mins followed by substrate addition and measured for 20 mins by colorimetry
T3 sequence (O89049 whole entry): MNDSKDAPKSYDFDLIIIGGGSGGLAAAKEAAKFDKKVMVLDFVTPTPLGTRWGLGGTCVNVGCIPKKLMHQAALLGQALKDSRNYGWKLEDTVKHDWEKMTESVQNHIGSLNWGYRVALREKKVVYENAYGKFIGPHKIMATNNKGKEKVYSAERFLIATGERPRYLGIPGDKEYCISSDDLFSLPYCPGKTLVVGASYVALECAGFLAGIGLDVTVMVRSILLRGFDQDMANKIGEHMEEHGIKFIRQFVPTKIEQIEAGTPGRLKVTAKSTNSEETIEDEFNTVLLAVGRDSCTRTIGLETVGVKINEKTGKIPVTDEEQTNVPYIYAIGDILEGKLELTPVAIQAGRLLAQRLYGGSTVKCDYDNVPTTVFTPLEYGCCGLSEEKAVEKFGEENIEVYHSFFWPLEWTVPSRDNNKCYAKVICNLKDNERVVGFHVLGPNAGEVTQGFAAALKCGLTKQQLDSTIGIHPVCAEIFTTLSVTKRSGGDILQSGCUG

[8] = biological target: T2, ATP-dependent translocase ABCB1; test: Inhibition of P-gp in human U87-TxR cells assessed as increase in Rho123 accumulation at 2.5 uM measured after 72 hrs by flow cytometry; type: cell-based
[9] = biological target: T2, ATP-dependent translocase ABCB1; test: Inhibition of P-gp in human U87-TxR cells assessed as increase in Rho123 accumulation at 5 uM measured after 30 mins by flow cytometry; type: cell-based; details: 0.5 h
[10] = biological target: T2, ATP-dependent translocase ABCB1; test: Inhibition of P-gp in human U87-TxR cells assessed as increase in Rho123 accumulation at 50 nM measured after 30 mins by flow cytometry; type: cell-based; details: 0.5 h, 0.05 µM

T2 sequence (P08183 whole entry): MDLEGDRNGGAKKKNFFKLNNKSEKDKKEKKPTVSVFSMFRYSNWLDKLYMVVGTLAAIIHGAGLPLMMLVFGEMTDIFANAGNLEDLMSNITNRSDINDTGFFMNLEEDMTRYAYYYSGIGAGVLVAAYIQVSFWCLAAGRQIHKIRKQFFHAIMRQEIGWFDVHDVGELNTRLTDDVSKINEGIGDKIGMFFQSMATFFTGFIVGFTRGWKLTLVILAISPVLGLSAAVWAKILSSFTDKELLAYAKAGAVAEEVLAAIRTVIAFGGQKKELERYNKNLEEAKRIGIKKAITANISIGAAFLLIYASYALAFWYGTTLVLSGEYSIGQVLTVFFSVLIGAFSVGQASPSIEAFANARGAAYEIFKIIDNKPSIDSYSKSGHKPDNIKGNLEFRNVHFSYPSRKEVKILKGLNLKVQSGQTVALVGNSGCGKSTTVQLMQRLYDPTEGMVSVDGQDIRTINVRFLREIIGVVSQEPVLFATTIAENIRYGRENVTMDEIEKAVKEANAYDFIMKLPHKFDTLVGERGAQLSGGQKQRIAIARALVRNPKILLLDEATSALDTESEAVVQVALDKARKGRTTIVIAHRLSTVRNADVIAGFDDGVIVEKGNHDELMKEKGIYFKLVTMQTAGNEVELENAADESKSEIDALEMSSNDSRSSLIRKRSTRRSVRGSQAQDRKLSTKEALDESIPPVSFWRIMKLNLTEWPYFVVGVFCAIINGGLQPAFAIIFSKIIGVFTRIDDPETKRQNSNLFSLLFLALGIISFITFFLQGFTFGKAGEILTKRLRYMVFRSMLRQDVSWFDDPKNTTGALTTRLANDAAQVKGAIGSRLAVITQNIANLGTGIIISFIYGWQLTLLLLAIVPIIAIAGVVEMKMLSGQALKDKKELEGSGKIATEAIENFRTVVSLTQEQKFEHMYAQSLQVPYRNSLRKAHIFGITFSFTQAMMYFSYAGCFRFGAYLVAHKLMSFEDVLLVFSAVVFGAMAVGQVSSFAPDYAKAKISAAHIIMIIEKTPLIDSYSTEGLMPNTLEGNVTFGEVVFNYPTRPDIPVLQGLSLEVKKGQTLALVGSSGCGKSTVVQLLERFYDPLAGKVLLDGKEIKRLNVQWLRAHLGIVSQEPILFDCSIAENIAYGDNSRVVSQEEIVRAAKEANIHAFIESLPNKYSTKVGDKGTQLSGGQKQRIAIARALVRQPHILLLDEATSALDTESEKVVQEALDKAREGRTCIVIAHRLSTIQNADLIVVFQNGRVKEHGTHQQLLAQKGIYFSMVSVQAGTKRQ

Row | SMILES | inhibition [3] | inhibition (INH) [4] | inhibition (SH-SY5Y) [%] | inhibition [6] | pIC50 [7] | inhibition (INH) [8] | inhibition (INH) [9] | inhibition (INH) [10] | pIC50 [1] | selectivity ratio [2] | selectivity ratio [5] | pIC50 (U-87 MG) | pIC50 (MRC5)
1 | CN(CCOC(=O)/C=C/C(=O)c1ccc(F)cc1)C(C(=O)NC(C)(C)C)c1ccc(F)cc1 (configuration not stated) | Active | Dose-dependent effect |  |  |  |  |  |  | 5.07 | 1.4 | 1.4 | 5.05 | 4.93
2 | Cc1ccc(C(=O)/C=C/C(=O)OCCN(C)C(C(=O)NC2CCCCC2)c2ccc(F)cc2)cc1 (configuration not stated) | Active |  | 68.8 | Active | 4.43 | Not Active | Active |  | 4.93 | 1.6 | 1.6 | 5.23 | 4.85
3 | CN(CCOC(=O)/C=C/C(=O)c1ccc(F)cc1)C(C(=O)NC(C)(C)C)c1ccccc1F (configuration not stated) | Active |  | 64 |  | 5.30 | Not Active | Active |  | 5.21 | 2 | 2 | 5.08 | 4.83
4 | COc1cc2c(cc1OC)CN(CCc1ccc(NC(=O)c3cc(OC)c(OC)cc3NC(=O)c3cnc4ccccc4c3)cc1)CC2 [TARIQUIDAR] |  |  |  |  |  |  |  | Active |  |  |  |  | 

More lines, main results first:

Row | inhibition [3] | inhibition (INH) [4] | inhibition (SH-SY5Y) [%] | inhibition [6] | pIC50 [7] | inhibition (INH) [8] | inhibition (INH) [9] | inhibition (INH) [10] | SMILES | pIC50 [1] | selectivity ratio [2] | selectivity ratio [5] | pIC50 (U-87 MG) | pIC50 (MRC5)
5 | Active |  | 82.7 | Active | 6.23 | Not Active | Active |  | Cc1ccc(C(C(=O)NC(C)(C)C)N(C)CCOC(=O)/C=C/C(=O)c2ccc(F)cc2)cc1 (configuration not stated) | 5.21 | 2.2 | 2.2 | 5.16 | 4.85
6 | Active |  | 53 |  | 5.49 | Active | Active |  | Cc1cccc(C(C(=O)NC2CCCCC2)N(C)CCOC(=O)/C=C/C(=O)c2ccc(F)cc2)c1 (configuration not stated) | 5.11 | 1.9 | 1.9 | 5.15 | 4.85
7 | Active |  | 33 | Active | 5.82 | Not Active | Active |  | Cc1cccc(C(C(=O)NC(C)(C)C)N(C)CCOC(=O)/C=C/C(=O)c2ccc(F)cc2)c1 (configuration not stated) | 5.08 | 1.6 | 1.6 | 5.10 | 4.87
8 |  |  | 84.6 | Active | 6.72 | Not Active | Active |  | CN(CCOC(=O)/C=C/C(=O)c1ccc(F)cc1)C(C(=O)NC(C)(C)C)c1ccc(F)c(F)c1 (configuration not stated) | 5.11 | 2.4 | 2.4 | 5.15 | 4.75
9 | Active |  | 50.2 | Active | 5.47 | Not Active | Active |  | CCN(CCOC(=O)/C=C/C(=O)c1ccc(F)cc1)C(C(=O)NC(C)(C)C)c1cccc(C)c1 (configuration not stated) | 5.22 | 2 | 2 | 5.15 | 4.89
